Test results: patent publication US20120004282A1, “RNA Interference Mediated Inhibition of the Intercellular Adhesion Molecule 1 (ICAM-1) Gene Expression Using Short Interfering Nucleic Acid (siNA)” (Merck Sharp & Dohme Corp,, priority 2009, published 2012)
[invAb] = inverted abasic unit; m = 2'-O-methyl; r = 2'-OH (RNA); f = 2'-fluoro

The substances below were run on ICAM-1 mRNA (assay: ICAM-1 mRNA knock-down in transfected Calu-1 cells (Taqman RT-PCR)). Conditions: Calu-1 cells, 10 nM siNA, 24 hrs post-transfection, mean ± S.D., relative to non-targeting control.
Assay type: cell-based, human
Protocol: Calu-1 (human; ATCC cat# HTB-54): Cells were cultured at 37° C. in the presence of 5% CO2 and grown in McCoy's 5a medium supplemented with fetal bovine serum at a final concentration of 10% and 100 μg/mL of streptomycin and 100 U/mL penicillin.
All transfections were performed using RNAiMax (Invitrogen Cat# 13778-150) as per the manufacturer's instructions.
Calu-1 cells were plated in all wells of a tissue-culture treated, 96-well plate at final counts of 5,000 cells/well in 100 μL of appropriate culture media. Cells were cultured for 24 hours after plating at 37° C. in the presence of 5% CO2.
After 24 hours, complexes containing siNA and RNAiMax were created as follows. A solution of RNAiMax diluted 33-fold in OPTI-MEM was prepared. In parallel, solutions of the siNAs for testing were prepared to a final concentration of 120 nM in OPTI-MEM. After incubation of RNAiMax/OPTI-MEM solution at room temperature for 5 min, an equal volume of the siNA solution and the RNAiMax solution were added together for each of the siNAs. […] This solution was incubated at room temperature for 20 minutes. After incubation, 20 uL of the solution was added to each of the relevant wells. The final concentration of siNA in each well was 10 nM and the final volume of RNAiMax in each well was 0.3 uL.
The time of incubation with the RNAiMax-siNA complexes was 24 hours, unless otherwise indicated. There was no change in media between the transfection and harvesting of the cells unless otherwise indicated.
Dose response curves were carried out in a similar fashion in 96-well plates, while maintaining a constant amount of RNAiMax in each transfection.
RNA was extracted from a 96-well plate using the TaqMan® Gene Expression Cells-to-CT™ Kit (Cat# 4399002) with a modified protocol. Briefly, a 60 uL (1 plate) or 110 uL (2 plates) of the Lysis Solution with DNase I was dispensed into each well of the Lysis Buffer Plate (twin.tec full skirt plate). The lysis buffer and stop plates were stored at 4° C. until the cells were washed.
The plate was spun at 1100 rpm for 5 minutes. The culture medium was aspirated and discarded from the wells of the culture plate. The lysis was performed automatically using a BioMek FX instrument and method. After the Biomek method was completed, the lysis plate was incubated for 2 min. at room temperature. The lysis plate can be stored for 2 hours at 4° C., or at −20° C. or −80° C. for two months.
Each well of the reverse transcription plate required 10 uL of 2× reverse transcriptase Buffer, 1 uL of 20× reverse transcription enzyme and 2 uL of nuclease-free water. The reverse transcription master mix was prepared by mixing 2× reverse transcription buffer, 20× reverse transcription enzyme mix, and nuclease-free water. 13 uL of the reverse transcription master mix was dispensed into each well of the reverse transcription plate (semi-skirted). A separate reverse transcription plate was prepared for each cell plate. The plate was loaded onto a Biomek NX or Biomek FX Dual-96 and the Biomek method was run. The program is programmed to automatically added 7 uL of lysate from the cell lysis procedure described above into each well of the reverse transcription plate. The plate is sealed and spun on a centrifuge (1000 rpm for 30 seconds) to settle the contents to the bottom of the reverse transcription plate. The plate is placed in a thermocycler at 37° C. for 60 min, 95° C. for 5 min, and 4° C. until the plate is removed from the thermocycler. Upon removal, if not used immediately, the plate was frozen at −20° C.
A series of probes and primers were used to detect the various mRNA transcripts of the genes of ICAM-1 and ICAM-2 in human cell lines (see Table 2). All the Taqman probes and primers for the experiments here-in described were supplied as pre-validated sets by Applied Biosystems, Inc., (see Table 2). The assays were performed on an ABI 7900 instrument, according to the manufacturer's instructions. […]
In the case of “48710-DC: siNA duplex, ICAM-1 target site 1574 (m); sense B ccucGuGAuGGcAGccucu TTB; antisense AGAGGcuGccAucAcGAGGUU (sense CCUCGUGAUGGCAGCCUCUTT; antisense AGAGGCUGCCAUCACGAGGUU; sense: DNA at AGT, 2'-fluoro at CU, [invAb] at 5' end, 3' end, backbone not given here; antisense: sugars from the 5' end rrrmmffmffmffmfmmmmmm, backbone not given here)”, the “% KD Human” value is reported as 25 ± 5%. With “48713-DC: siNA duplex, ICAM-1 target site 709 (m); sense B GGAcuuucGAucuuccAGc TTB; antisense GCUGGAAGAucGAAAGuccUU (sense GGACUUUCGAUCUUCCAGCTT; antisense GCUGGAAGAUCGAAAGUCCUU; sense: DNA at AGT, 2'-fluoro at CU, [invAb] at 5' end, 3' end, backbone not given here; antisense: sugars from the 5' end rrrmmmmmmffmmmmmfffmm, backbone not given here)” the “% KD Human” value was 36 ± 17%. “48721-DC: siNA duplex, ICAM-1 target site 523 (h); sense B GuuGcuccuGccuGGGAAc TTB; antisense GUUcccAGGcAGGAGcAAcUU (sense GUUGCUCCUGCCUGGGAACTT; antisense GUUCCCAGGCAGGAGCAACUU; sense: DNA at AGT, 2'-fluoro at CU, [invAb] at 5' end, 3' end, backbone not given here; antisense: sugars from the 5' end rrrfffmmmfmmmmmfmmfmm, backbone not given here)” was tested, and the “% KD Human” value was 56 ± 16%. For “29292-DC: siNA duplex, ICAM-1 target site 863 (h); sense B GccAAuuucucGuGccGcA TTB; antisense UGCGGcAcGAGAAAuuGGcUU (sense GCCAAUUUCUCGUGCCGCATT; antisense UGCGGCACGAGAAAUUGGCUU; sense: DNA at AGT, 2'-fluoro at CU, [invAb] at 5' end, 3' end, backbone not given here; antisense: sugars from the 5' end rrrmmfmfmmmmmmffmmfmm, backbone not given here)”, the “% KD Human” value was 76 ± 3%. With “48700-DC: siNA duplex, ICAM-1 target site 1549 (m); sense B uGccAGuAcuGcuGGucAu TTB; antisense AUGAccAGcAGuAcuGGcAUU (sense UGCCAGUACUGCUGGUCAUTT; antisense AUGACCAGCAGUACUGGCAUU; sense: DNA at AGT, 2'-fluoro at CU, [invAb] at 5' end, 3' end, backbone not given here; antisense: sugars from the 5' end rrrmffmmfmmfmffmmfmmm, backbone not given here)” the “% KD Human” value was 13 ± 5%. In the case of “29290-DC: siNA duplex, ICAM-1 target site 1226 (h); sense B cAGAcAGuGAccAucuAcA TTB; antisense UGUAGAuGGucAcuGucuGUU (sense CAGACAGUGACCAUCUACATT; antisense UGUAGAUGGUCACUGUCUGUU; sense: DNA at AGT, 2'-fluoro at CU, [invAb] at 5' end, 3' end, backbone not given here; antisense: sugars from the 5' end rrrmmmfmmffmffmfffmmm, backbone not given here)”, the “% KD Human” value is reported as 47 ± 18%. “48724-DC: siNA duplex, ICAM-1 target site 560 (h); sense B cuGAGcAAuGuGcAAGAAG TTB; antisense CUUcuuGcAcAuuGcucAcUU (sense CUGAGCAAUGUGCAAGAAGTT; antisense CUUCUUGCACAUUGCUCACUU; sense: DNA at AGT, 2'-fluoro at CU, [invAb] at 5' end, 3' end, backbone not given here; antisense: sugars from the 5' end rrrfffmfmfmffmfffmfmm, backbone not given here)” was tested, and the “% KD Human” value was 34 ± 8%.
